Legend:
Assay in all cases: relative viability (nuclei count vs DMSO), 5 days (fraction); higher = more cells survive
Cediranib + Foretinib = compound: COc1cc2c(Oc3ccc4[nH]c(C)cc4c3F)ncnc2cc1OCCCN1CCCC1 [Cediranib] + COc1cc2c(Oc3ccc(NC(=O)C4(C(=O)Nc5ccc(F)cc5)CC4)cc3F)ccnc2cc1OCCCN1CCOCC1 [Foretinib] (partner 0.25 µM)
Procedure, shortened: (§1)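 Five library-drug doses in √10 steps were combined with a fixed anchor-drug dose, or a single drug was given alone, by pin tool to lung cancer cell lines in 1536-well plates the day after seeding. Nuclei were stained and counted after 5 days. Relative viability is the nuclei count in treated wells over that in vehicle wells, taken as the median of duplicate plates.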

Decitabine + Luminespib = compound: Nc1ncn([C@H]2C[C@H](O)[C@@H](CO)O2)c(=O)n1 [Decitabine] + CCNC(=O)c1noc(-c2cc(C(C)C)c(O)cc2O)c1-c1ccc(CN2CCOCC2)cc1 [Luminespib] (partner 0.01 µM)
Procedure, shortened: as §1

Cediranib + Pictilisib = compound: COc1cc2c(Oc3ccc4[nH]c(C)cc4c3F)ncnc2cc1OCCCN1CCCC1 [Cediranib] + CS(=O)(=O)N1CCN(Cc2cc3nc(-c4cccc5[nH]ncc45)nc(N4CCOCC4)c3s2)CC1 [Pictilisib] (partner 1 µM)
Procedure, shortened: as §1

[1] = compound: O=C(C[C@H]1NCCC[C@@H]1O)Cn1cnc2cc(Br)c(Cl)cc2c1=O (racemic) [Halofuginone] + CS(=O)(=O)N1CCN(Cc2cc3nc(-c4cccc5[nH]ncc45)nc(N4CCOCC4)c3s2)CC1 [Pictilisib] (partner 1 µM)
Procedure, shortened: as §1

Row | Cell Line | relative viability (Cediranib + Foretinib; first compound 0.04 µM) | relative viability (Cediranib + Foretinib; first compound 0.1265 µM) | relative viability (Cediranib + Foretinib; first compound 0.4 µM) | relative viability (Cediranib + Foretinib; first compound 1.265 µM) | relative viability (Cediranib + Foretinib; first compound 4 µM) | relative viability (Decitabine + Luminespib; first compound 0.04 µM) | relative viability (Decitabine + Luminespib; first compound 0.1265 µM) | relative viability (Decitabine + Luminespib; first compound 0.4 µM) | relative viability (Decitabine + Luminespib; first compound 1.265 µM) | relative viability (Decitabine + Luminespib; first compound 4 µM) | relative viability (Cediranib + Pictilisib; first compound 0.04 µM) | relative viability (Cediranib + Pictilisib; first compound 0.1265 µM) | relative viability (Cediranib + Pictilisib; first compound 0.4 µM) | relative viability (Cediranib + Pictilisib; first compound 1.265 µM) | relative viability (Cediranib + Pictilisib; first compound 4 µM) | relative viability ([1]; first compound 0.001 µM) | relative viability ([1]; first compound 0.003162 µM) | relative viability ([1]; first compound 0.01 µM) | relative viability ([1]; first compound 0.03162 µM) | relative viability ([1]; first compound 0.1 µM)
1 | NCI-H2342 | 1.14 | 1.07 | 0.927 | 1.06 | 1.12 | 0.765 | 0.737 | 0.804 | 0.537 | 0.434 |  |  |  |  |  |  |  |  |  | 
2 | SW 1573 | 0.937 | 1.01 | 0.912 | 0.996 | 1.09 | 0.135 | 0.172 | 0.201 | 0.143 | 0.151 | 0.544 | 0.486 | 0.428 | 0.474 | 0.486 | 0.451 | 0.532 | 0.435 | 0.34 | 0.18
3 | NCI-H1993 | 0.798 | 0.936 | 0.763 | 0.739 | 0.53 | 0.725 | 0.826 | 0.787 | 0.696 | 0.674 | 0.883 | 0.806 | 0.719 | 0.805 | 0.809 | 0.788 | 0.749 | 0.891 | 0.807 | 0.803
4 | NCI-H661 | 1.04 | 0.971 | 0.956 | 0.978 | 1.11 | 0.937 | 0.771 | 0.628 | 0.534 | 0.452 | 0.428 | 0.588 | 0.419 | 0.318 | 0.366 | 0.496 | 0.355 | 0.365 | 0.408 | 0.444
5 | NCI-H520 | 0.859 | 0.656 | 0.626 | 0.731 | 0.576 | 0.212 | 0.214 | 0.214 | 0.254 | 0.239 | 0.312 |  | 0.246 | 0.221 | 0.22 | 0.301 | 0.295 | 0.281 | 0.243 | 0.181
6 | ChaGo-K-1 | 0.921 | 0.833 | 0.837 | 0.897 | 1 | 0.584 | 0.487 | 0.33 | 0.277 | 0.39 | 0.805 |  | 0.7 | 0.852 | 0.639 | 0.587 | 0.397 | 0.683 | 0.669 | 0.776
7 | NCI-H2085 | 0.919 | 0.942 | 0.861 | 0.759 | 0.923 | 0.436 | 0.404 | 0.323 | 0.372 | 0.344 | 0.466 | 0.501 | 0.473 | 0.419 | 0.399 | 0.58 | 0.407 | 0.448 | 0.515 | 0.48
8 | NCI-H1651 | 0.827 | 0.763 | 0.685 | 0.831 | 0.829 | 0.942 | 0.844 | 0.828 | 0.69 | 0.658 | 0.666 | 0.77 | 0.533 | 0.458 | 0.445 | 0.677 | 0.586 | 0.548 | 0.522 | 0.243
9 | RERF-LC-KJ | 0.917 | 0.889 | 0.873 | 0.862 | 0.953 | 1.18 | 1.01 |  | 0.582 | 0.685 | 0.526 | 0.573 | 0.516 | 0.461 | 0.431 | 0.568 | 0.601 | 0.543 | 0.531 | 0.433
